Laboratory results reported in patent US20210254056A1, “IDENTIFICATION AND TARGETED MODULATION OF GENE SIGNALING NETWORKS” (CAMP4 THERAPEUTICS CORPORATION, priority 2017, published 2021).

System: hepatocytes
Assay: RNA-seq of hepatocytes treated with Phase III failure compounds
Procedure: RNA-seq was performed to determine the effects of the compounds on hepatocytes.
Significance was determined by the criteria of FPKM≥0.5, a log 2(fold-change)≥1, and a […].

## COc1cc2nccc(Oc3ccc(NC(=O)Nc4cc(C)on4)c(Cl)c3)c2cc1OC [Tivozanib]
  RNA-seq results, CYP2B6 expression: 0.16
  RNA-seq results, CYP2C19 expression: −1.36
  RNA-seq results, CYP2D6 expression: 0.21
  RNA-seq results, CYP3A4 expression: 0.50
  RNA-seq results, CYP7B1 expression: −1.02
  RNA-seq results, CYP39A1 expression: 0.94
  RNA-seq results: CYP2B6 expression: 0.24
  RNA-seq results: CYP2C19 expression: 0.27
  RNA-seq results: CYP2D6 expression: −0.3
  RNA-seq results: CYP3A4 expression: 0.18
  RNA-seq results: CYP7B1 expression: −0.17
  RNA-seq results: CYP39A1 expression: 0.06
RNA-seq, q≤0.05, hepatocytes, genes in the value or listed in the block
  significant modulation of expression of disease genes: significantly (q≤0.05) modulate expression
RNA-seq, hepatocytes
  effect on disease gene expression: effect on expression of too many disease genes
Gene A1BG, hepatocytes
  RNA-seq results: A1BG expression: 0.51
Gene AGTR1, hepatocytes
  RNA-seq results: AGTR1 expression: −0.47
Gene AGXT, hepatocytes
  RNA-seq results: AGXT expression: 0.04
Gene AHI1, hepatocytes
  RNA-seq results: AHI1 expression: 0.24
Gene AMPD3, hepatocytes
  RNA-seq results: AMPD3 expression: −0.18
Gene AMT, hepatocytes
  RNA-seq results: AMT expression: 0.50
Gene ANGPTL3, hepatocytes
  RNA-seq results: ANGPTL3 expression: −1.56
Gene ANKS4B, hepatocytes
  RNA-seq results: ANKS4B expression: −0.68
Gene ANKS6, hepatocytes
  RNA-seq results: ANKS6 expression: −0.21
Gene ANPEP, hepatocytes
  RNA-seq results: ANPEP expression: −1.04
Gene AOC2, hepatocytes
  RNA-seq results: AOC2 expression: −0.20
Gene APOA2, hepatocytes
  RNA-seq results: APOA2 expression: 0.31
Gene APOA5, hepatocytes
  RNA-seq results: APOA5 expression: −0.09
Gene APOB, hepatocytes
  RNA-seq results: APOB expression: −0.40
Gene COG5, hepatocytes
  RNA-seq results: COG5 expression: −0.02
Gene COG6, hepatocytes
  RNA-seq results: COG6 expression: −0.09
Gene COL1A1, hepatocytes
  RNA-seq results: COL1A1 expression: −0.35
Gene COX6A1, hepatocytes
  RNA-seq results: COX6A1 expression: −0.05
Gene CP, hepatocytes
  RNA-seq results: CP expression: 0.36
Gene CPS1, hepatocytes
  RNA-seq results: CPS1 expression: 0.2
Gene CPT1A, hepatocytes
  RNA-seq results: CPT1A expression: 0.08
Gene CPT2, hepatocytes
  RNA-seq results: CPT2 expression: 0.07
Gene CROT, hepatocytes
  RNA-seq results: CROT expression: −0.02
Gene CSPP1, hepatocytes
  RNA-seq results: CSPP1 expression: 0.35
Gene CTC1, hepatocytes
  RNA-seq results: CTC1 expression: −0.04
Gene CTDSP2, hepatocytes
  RNA-seq results: CTDSP2 expression: 0
Gene CTH, hepatocytes
  RNA-seq results: CTH expression: 0.11
Gene CTNS, hepatocytes
  RNA-seq results: CTNS expression: −0.16
Gene CTSF, hepatocytes
  RNA-seq results: CTSF expression: −0.1
Gene CTSK, hepatocytes
  RNA-seq results: CTSK expression: 0.32
Gene CYB5A, hepatocytes
  RNA-seq results: CYB5A expression: 0.09
Gene CYB5R3, hepatocytes
  RNA-seq results: CYB5R3 expression: −0.25
Gene CYP27A1, hepatocytes
  RNA-seq results: CYP27A1 expression: 0.02
Gene DAO, hepatocytes
  RNA-seq results: DAO expression: 0.02
Gene DBT, hepatocytes
  RNA-seq results: DBT expression: 0.18
Gene DCDC2, hepatocytes
  RNA-seq results: DCDC2 expression: 0.25
Gene DCXR, hepatocytes
  RNA-seq results: DCXR expression: −0.35
Gene FABP1, hepatocytes
  RNA-seq results: FABP1 expression: 0.25
Gene FADD, hepatocytes
  RNA-seq results: FADD expression: −0.32
Gene FAM111A, hepatocytes
  RNA-seq results: FAM111A expression: 0.18
Gene FAM111B, hepatocytes
  RNA-seq results: FAM111B expression: 0.01
Gene FAN1, hepatocytes
  RNA-seq results: FAN1 expression: 0.06
Gene FARS2, hepatocytes
  RNA-seq results: FARS2 expression: −0.06
Gene FASLG, hepatocytes
  RNA-seq results: FASLG expression: −0.16
Gene FGA, hepatocytes
  RNA-seq results: FGA expression: 0.15
Gene FGD1, hepatocytes
  RNA-seq results: FGD1 expression: −0.42
Gene FGFR2, hepatocytes
  RNA-seq results: FGFR2 expression: 0.36
Gene FIG4, hepatocytes
  RNA-seq results: FIG4 expression: 0.29
Gene FIS1, hepatocytes
  RNA-seq results: FIS1 expression: 0.01
Gene FTCD, hepatocytes
  RNA-seq results: FTCD expression: −0.28
Gene FTH1, hepatocytes
  RNA-seq results: FTH1 expression: −0.33
Gene FUCA1, hepatocytes
  RNA-seq results: FUCA1 expression: 0.06
Gene FXN, hepatocytes
  RNA-seq results: FXN expression: −0.37
Gene G6PC3, hepatocytes
  RNA-seq results: G6PC3 expression: −0.21
Gene G6PC, hepatocytes
  RNA-seq results: G6PC expression: −0.01
Gene G6PD, hepatocytes
  RNA-seq results: G6PD expression: −0.09
Gene GALK1, hepatocytes
  RNA-seq results: GALK1 expression: −0.45
Gene GALK2, hepatocytes
  RNA-seq results: GALK2 expression: −0.06
Gene GALT, hepatocytes
  RNA-seq results: GALT expression: 0
Gene GATA6, hepatocytes
  RNA-seq results: GATA6 expression: −0.71
Gene GATM, hepatocytes
  RNA-seq results: GATM expression: −0.01
Gene GBA, hepatocytes
  RNA-seq results: GBA expression: 0.02
Gene GBE1, hepatocytes
  RNA-seq results: GBE1 expression: −0.06
Gene GCH1, hepatocytes
  RNA-seq results: GCH1 expression: −0.12
Gene GCKR, hepatocytes
  RNA-seq results: GCKR expression: 0.14
Gene GCLC, hepatocytes
  RNA-seq results: GCLC expression: −0.06
Gene GOSH, hepatocytes
  RNA-seq results: GOSH expression: −1.23
Gene RRM2B, hepatocytes
  RNA-seq results: RRM2B: −0.32
Gene RSAD1, hepatocytes
  RNA-seq results: RSAD1: 0.01
Gene SAMHD1, hepatocytes
  RNA-seq results: SAMHD1: −1.92
Gene SC5D, hepatocytes
  RNA-seq results: SC5D: 0.47
Gene SCARB1, hepatocytes
  RNA-seq results: SCARB1: −0.67
Gene SCN9A, hepatocytes
  RNA-seq results: SCN9A: −0.32
Gene SDCCAG8, hepatocytes
  RNA-seq results: SDCCAG8: −0.50
Gene SEPN1, hepatocytes
  RNA-seq results: SEPN1: −1.37
Gene SERAC1, hepatocytes
  RNA-seq results: SERAC1: −0.31
Gene SERPINA1, hepatocytes
  RNA-seq results: SERPINA1: 0.12
Gene SERPING1, hepatocytes
  RNA-seq results: SERPING1: 0.14
Gene SERPINI1, hepatocytes
  RNA-seq results: SERPINI1: −0.06
Gene SETBP1, hepatocytes
  RNA-seq results: SETBP1: −0.38
Gene SFXN4, hepatocytes
  RNA-seq results: SFXN4: 0.25
Gene SLC10A1, hepatocytes
  RNA-seq results: SLC10A1: −0.16
Gene SLC10A3, hepatocytes
  RNA-seq results: SLC10A3: −0.82
Gene SLC10A5, hepatocytes
  RNA-seq results: SLC10A5: −1.06
Gene SLC10A7, hepatocytes
  RNA-seq results: SLC10A7: −0.12
Gene SLC11A2, hepatocytes
  RNA-seq results: SLC11A2: −0.44
Gene SLC19A1, hepatocytes
  RNA-seq results: SLC19A1: −0.33
Gene SLC19A2, hepatocytes
  RNA-seq results: SLC19A2: −0.15
Gene SLC19A3, hepatocytes
  RNA-seq results: SLC19A3: −0.16
Gene SLC22A1, hepatocytes
  RNA-seq results: SLC22A1: 0.24
Gene SLC22A5, hepatocytes
  RNA-seq results: SLC22A5: −0.38
Gene SLC25A1, hepatocytes
  RNA-seq results: SLC25A1: −0.61
Gene SLC25A10, hepatocytes
  RNA-seq results: SLC25A10: −0.64
Gene SLC25A12, hepatocytes
  RNA-seq results: SLC25A12: −0.97
Gene SLC25A13, hepatocytes
  RNA-seq results: SLC25A13: −0.53
Gene SLC25A15, hepatocytes
  RNA-seq results: SLC25A15: −0.18
Gene SLC25A19, hepatocytes
  RNA-seq results: SLC25A19: −0.47
Gene SLC25A20, hepatocytes
  RNA-seq results: SLC25A20: −1.32
Gene SLC25A29, hepatocytes
  RNA-seq results: SLC25A29: −0.54
Gene SLC25A32, hepatocytes
  RNA-seq results: SLC25A32: −0.47

## CCCCC(C(=O)c1ccccc1)N1CCCC1 (centres unmarked) [a-PHP]
  significant changes in gene expression: not observed to cause any significant changes in gene expression
RNA-seq, p≤0.05, hepatocytes
  significant modulation of expression of any of the genes analyzed: not observed to significantly modulate expression
